The text below walks through data of patent US6759509B1, “Branched peptide linkers” (Bristol-Myers Squibb Company, priority 1996, dated 2004).

A short description of this data set: decomposition of the isolated drug/linker in solution. To be noted: by HPLC for Example 31. In kind it is physicochemical. On the procedure:
A solution of MEt-IDA-(Phe-Lys(Mtr)-PABC-MMC)2 30 (134.6 mg, 0.0590 mmol) in methylene chloride (3 mL) at rt was treated with anisole (1.28 mL, 200 equiv) and 1 M chloroacetic acid in methylene chloride (1.18 mL, 20 equiv). After 3.5 h ethyl acetate (30 mL) was added. The resulting purple solid was collected by filtration, washed with ethyl acetate and air-dried (97.8 mg, 82%). […] MS (FAB) 1738.3 (M+Na)^+, 1776.4 (M+K)^+.
MEt-IDA-(Phe-Lys(Mtr)-PABC-7-Paclitaxel)2 33 (333.0 mg, 0.0861 mmol) in methylene chloride (3 mL) was treated with anisole (1.87 mL, 200 equiv) and 1 M chloroacetic acid in methylene chloride (1.72 mL, 20 equiv). After 4 h the mixture was diluted with ether (30 mL). The resulting suspension was sonicated for several minutes and then the solid was collected by filtration and washed with ether (256.3 mg, 97%). […] MS (ESI) 2778.2 (MH)^+.

On to “MEt-IDA-(Phe-Lys-PABC-MMC)2.2Cl2CHCO2H [Example 31]”, for which the “stability of the product in solution” value is “appeared to decompose in solution to one product”.
